Results reported in ChEMBL document CHEMBL3352636, “Rational design, synthesis and anti-proliferative evaluation of novel benzosuberone tethered with hydrazide-hydrazones” (2014).

What was measured:
Assay type in all cases: functional
[1] = Growth inhibition of human MiaPaCa cells after 48 hrs by SRB assay; conditions: MIA PaCa-2, 48 h
[2] = Growth inhibition of human IMR32 cells after 48 hrs by SRB assay; conditions: IMR-32, 48 h
MDA-MB-231 = test: Growth inhibition of human MDA-MB-231 cells after 48 hrs by SRB assay; conditions: MDA-MB-231, 48 h
HeLa = test: Growth inhibition of human HeLa cells after 48 hrs by SRB assay

GI50 (MDA-MB-231)	GI50 (HeLa)	SMILES	GI50 [1]	GI50 [2]
5400 nM	650 nM	Cc1cc2c(cc1C)C(Cl)=C(/C=N/NC(=O)c1cccnc1)CCC2	1600 nM	8.4 µM
< 10 nM	6800 nM	Cc1cc2c(cc1C)C(Cl)=C(/C=N/NC(=O)c1cccc(C(F)(F)F)c1)CCC2	12200 nM	7.8 µM
1200 nM	> 100000 nM	Cc1cc2c(cc1C)C(Cl)=C(/C=N/NC(=O)c1cccc(I)c1)CCC2	4300 nM	1.9 µM
3700 nM	> 100000 nM	Cc1cc2c(cc1C)C(Cl)=C(/C=N/NC(=O)c1ccccc1N)CCC2	810 nM	36.3 µM
7700 nM	> 100000 nM	Cc1cc2c(cc1C)C(Cl)=C(C(=O)N/N=C\C1=C(Cl)c3ccccc3CCC1)CCC2	6000 nM	2.4 µM
2500 nM	> 100000 nM	Cc1cc2c(cc1C)C(Cl)=C(/C=N/NC(=O)c1ccccc1)CCC2	> 100000 nM	1.8 µM
10000 nM	300 nM	COc1cccc(C(=O)N/N=C/C2=C(Cl)c3cc(C)c(C)cc3CCC2)c1C	2000 nM	0.17 µM
1930 nM	770 nM	Cc1cc2c(cc1C)C(Cl)=C(/C=N/NC(=O)c1cccc(Cl)c1)CCC2	33600 nM	> 100 µM
5000 nM	> 100000 nM	Nc1ccccc1C(=O)N/N=C/C1=C(Cl)c2ccccc2CCC1	65100 nM	51 µM
32900 nM	> 100000 nM	Cc1ccc(C(=O)N/N=C/C2=C(Cl)c3cc(C)c(C)cc3CCC2)cc1	28800 nM	0.1 µM
710 nM	1000 nM	Cc1cc2c(cc1C)C(Cl)=C(/C=N/NC(=O)c1cccc3ccccc13)CCC2	4600 nM	3.9 µM
3100 nM	4500 nM	Cc1cc2c(cc1C)C(Cl)=C(/C=N\NC(=O)C1=C(Cl)c3ccccc3CCC1)CCC2	210 nM	0.67 µM

Further lines, the compound ahead of its results:

SMILES	GI50 (MDA-MB-231)	GI50 (HeLa)	GI50 [1]	GI50 [2]
O=C(N/N=C/C1=C(Cl)c2ccccc2CCC1)c1cccc(C(F)(F)F)c1	94300 nM	16300 nM	5800 nM	2 µM
O=C(N/N=C\c1ccc(F)cc1)C1=C(Cl)c2ccccc2CCC1	410 nM	1300 nM	< 10 nM	0.27 µM
COc1cc(C(=O)N/N=C/C2=C(Cl)c3cc(C)c(C)cc3CCC2)cc(OC)c1OC	460 nM	760 nM	2300 nM	20.9 µM
O=C(N/N=C/C1=C(Cl)c2ccccc2CCC1)c1cccc(I)c1	55200 nM	6300 nM	1600 nM	7.6 µM
CC(=O)O[C@H]1C(=O)[C@@]2(C)[C@H]([C@H](OC(=O)c3ccccc3)[C@]3(O)C[C@H](OC(=O)[C@H](O)[C@@H](NC(=O)c4ccccc4)c4ccccc4)C(C)=C1C3(C)C)[C@]1(OC(C)=O)CO[C@@H]1C[C@@H]2O [PACLITAXEL]	91 nM	25 nM	56 nM	0.075 µM
Cc1ccc(/C=N\NC(=O)C2=C(Cl)c3ccccc3CCC2)cc1	260 nM	2300 nM	< 10 nM	0.14 µM
O=C(N/N=C/C1=C(Cl)c2ccccc2CCC1)c1ccc([N+](=O)[O-])cc1	3800 nM	> 100000 nM	2300 nM	26 µM
COc1cccc(C(=O)N/N=C/C2=C(Cl)c3ccccc3CCC2)c1C	290 nM	9200 nM	700 nM	26.5 µM
COc1cc(/C=N\NC(=O)C2=C(Cl)c3ccccc3CCC2)cc(OC)c1OC	< 10 nM	8200 nM	1400 nM	< 0.01 µM
Cc1cc2c(cc1C)C(Cl)=C(/C=N\NC(=O)C1=C(Cl)c3cc(C)c(C)cc3CCC1)CCC2	78200 nM	> 100000 nM	6000 nM	59.9 µM
Cc1cc2c(cc1C)C(Cl)=C(C(=O)N/N=C\c1ccc(Cl)cc1)CCC2	410 nM	1600 nM	440 nM	18.3 µM
COc1cc(/C=N\NC(=O)C2=C(Cl)c3cc(C)c(C)cc3CCC2)cc(OC)c1OC	1200 nM	21000 nM	5800 nM	4.1 µM
COc1cccc(/C=N\NC(=O)C2=C(Cl)c3ccccc3CCC2)c1	300 nM	15600 nM	< 10 nM	< 0.01 µM
Cc1cc2c(cc1C)C(Cl)=C(C(=O)N/N=C\c1ccc(F)cc1)CCC2	840 nM	2200 nM	360 nM	3.5 µM
COc1ccc(/C=N\NC(=O)C2=C(Cl)c3ccccc3CCC2)c(OC)c1	290 nM	38500 nM	2700 nM	14.9 µM
COc1cc(C(=O)N/N=C/C2=C(Cl)c3ccccc3CCC2)cc(OC)c1OC	30000 nM	770 nM	69300 nM	75.6 µM
COc1cc(C(=O)N/N=C/C2=C(Cl)c3ccccc3CCC2)c([N+](=O)[O-])cc1OC	> 100000 nM	1100 nM	10900 nM	2.7 µM
O=C(N/N=C/C1=C(Cl)c2ccccc2CCC1)c1cccc2ccccc12	12100 nM	4700 nM	13600 nM	9.2 µM
COc1cccc2c1C(=O)c1c(O)c3c(c(O)c1C2=O)C[C@@](O)(C(=O)CO)C[C@@H]3O[C@H]1C[C@H](N)[C@H](O)[C@H](C)O1 [DOXORUBICIN]	85 nM	73 nM	97 nM	0.023 µM
O=C(N/N=C/C1=C(Cl)c2ccccc2CCC1)c1cccnc1	91700 nM	7500 nM	11700 nM	0.15 µM
COc1cc(C(=O)N/N=C/C2=C(Cl)c3cc(C)c(C)cc3CCC2)c([N+](=O)[O-])cc1OC	220 nM	2000 nM	1600 nM	13.8 µM
Cc1ccc(C(=O)N/N=C/C2=C(Cl)c3ccccc3CCC2)cc1	710 nM	300 nM	10000 nM	0.3 µM
O=C(N/N=C\c1ccc(Cl)cc1)C1=C(Cl)c2ccccc2CCC1	260 nM	2300 nM	< 10 nM	0.14 µM
O=C(N/N=C/C1=C(Cl)c2ccccc2CCC1)c1cccc(Cl)c1	16300 nM	19200 nM	78400 nM	27.3 µM
O=C(N/N=C\C1=C(Cl)c2ccccc2CCC1)C1=C(Cl)c2ccccc2CCC1	3000 nM	1000 nM	1600 nM	2.2 µM
O=C(N/N=C/C1=C(Cl)c2ccccc2CCC1)c1ccccc1	11100 nM	> 100000 nM	1000 nM	16.1 µM
